Laboratory results: patent US10183946B2, “Triazolo[4,5-D]pyrimidines” (Hoffmann—La Roche Inc., priority 2014, dated 2019)

What was measured:
[1] = molecular target: human CB2 receptors (Homo sapiens (Human), UniProt P34972); assay: cAMP assay, CHO cells expressing human CB2 receptors; type: cell-based; conditions: functional cAMP assay, read-out: CB2 hcAMP EC50
Method: (§1) CHO cells expressing human CB1 or CB2 receptors are seeded 17-24 hours prior to the experiment 50.000 cells per well in a black 96 well plate with flat clear bottom (Corning Costar #3904) in DMEM (Invitrogen No. 31331), 1×HT supplement, with 10% fetal calf serum and incubated at 5% CO2 and 37° C. in a humidified incubator. The growth medium was exchanged with Krebs Ringer Bicarbonate buffer with 1 mM IBMX and incubated at 30° C. for 30 min. Compounds were added to a final assay volume of 100 μl and incubated for 30 min at 30° C. Using the cAMP-Nano-TRF detection kit the assay (Roche Diagnostics) was stopped by the addition of 50 μl lysis reagent (Tris, NaCl, 1.5% Triton X100, 2.5% NP40, 10% NaN3) and 50 μl detection solutions (20 μM mAb Alexa700-cAMP 1:1, and 48 μM Ruthenium-2-AHA-cAMP) and shaken for 2 h at room temperature. The time-resolved energy transfer is measured by a TRF reader (Evotec Technologies GmbH), equipped with a ND:YAG laser as excitation source. The plate is measured twice with the excitation at 355 nm and at the emission with a delay of 100 ns and a gate of 100 ns, total exposure time 10 s at 730 (bandwidth 30 nm) or 645 nm (bandwidth 75 nm), respectively. The FRET signal is calculated as follows: FRET=T730-Alexa730-P(T645-B645) with P=Ru730-B730/Ru645-B645, where T730 is the test well measured at 730 nM, T645 is the test well measured at 645 nm, B730 and B645 are the buffer controls at 730 nm and 645 nm, respectively. cAMP content is determined from the function of a standard curve spanning from 10 μM to 0.13 nM cAMP.
(§2) EC50 values were determined using Activity Base analysis (ID Business Solution, Limited). The EC50 values for a wide range of cannabinoid agonists generated from this assay were in agreement with the values published in the scientific literature.

[2] = molecular target: human CB1 receptors (Homo sapiens (Human), UniProt P21554); assay: cAMP assay, CHO cells expressing human CB1 receptors; type: cell-based; conditions: functional cAMP assay, CHO cells expressing human CB1; read-out: CB1 hcAMP EC50
Sequence of human CB1 receptors (P21554 whole entry): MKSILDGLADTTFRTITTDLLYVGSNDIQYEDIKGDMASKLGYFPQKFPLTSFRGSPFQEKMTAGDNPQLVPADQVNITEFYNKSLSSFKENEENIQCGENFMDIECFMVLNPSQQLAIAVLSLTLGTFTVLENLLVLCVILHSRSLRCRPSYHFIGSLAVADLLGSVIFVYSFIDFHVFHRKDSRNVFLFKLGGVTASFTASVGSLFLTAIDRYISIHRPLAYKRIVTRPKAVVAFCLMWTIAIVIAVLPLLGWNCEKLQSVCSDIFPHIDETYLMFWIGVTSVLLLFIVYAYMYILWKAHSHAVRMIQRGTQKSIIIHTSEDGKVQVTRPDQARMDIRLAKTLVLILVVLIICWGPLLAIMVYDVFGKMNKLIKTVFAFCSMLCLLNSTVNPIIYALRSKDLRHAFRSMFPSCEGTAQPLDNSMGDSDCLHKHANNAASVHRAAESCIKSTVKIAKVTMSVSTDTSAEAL
Method: as §1, §2

Sequence of human CB2 receptors (P34972 whole entry): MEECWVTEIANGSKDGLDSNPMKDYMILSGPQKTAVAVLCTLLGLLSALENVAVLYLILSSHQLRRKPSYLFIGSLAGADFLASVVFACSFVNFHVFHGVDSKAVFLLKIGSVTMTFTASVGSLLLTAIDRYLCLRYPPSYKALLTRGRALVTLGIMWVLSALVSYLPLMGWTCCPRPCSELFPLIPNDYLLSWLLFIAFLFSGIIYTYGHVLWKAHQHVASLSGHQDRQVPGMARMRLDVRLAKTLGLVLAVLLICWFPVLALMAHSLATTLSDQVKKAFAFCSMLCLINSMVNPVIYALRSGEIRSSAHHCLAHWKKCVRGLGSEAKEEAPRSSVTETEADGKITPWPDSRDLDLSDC

CC(C)(C)c1nc(-c2ccc(F)nc2)c2nnn(Cc3ccccc3Cl)c2n1 [Example 6, 5-tert-butyl-3-[(2-chlorophenyl)methyl]-7-(6-fluoropyridin-3-yl)triazolo[4,5-d]pyrimidine]
EC50 [1]: 0.0027 µM
EC50 [2]: > 10 µM

COc1ccc(-c2nc(C(C)(C)C)nc3c2nnn3Cc2ccccc2Cl)cc1 [Example 3, 5-tert-butyl-3-[(2-chlorophenyl)methyl]-7-(4-methoxyphenyl)triazolo[4,5-d]pyrimidine]
EC50 [1]: 0.239 µM
EC50 [2]: > 10 µM

CC(C)(C)c1nc(C2(O)CCCCC2)c2nnn(Cc3ccccc3Cl)c2n1 [Example 35, 1-[5-tert-Butyl-3-[(2-chlorophenyl)methyl]triazolo[4,5-d]pyrimidin-7-yl]cyclohexanol]
EC50 [1]: 0.172 µM
EC50 [2]: > 10 µM

Cn1nccc1-c1nc(C(C)(C)C)nc2c1nnn2Cc1ncccc1Cl [Example 21, 5-tert-butyl-3-[(3-chloropyridin-2-yl)methyl]-7-(2-methylpyrazol-3-yl)triazolo[4,5-d]pyrimidine]
EC50 [1]: 0.0395 µM
EC50 [2]: > 10 µM

Cc1oncc1-c1nc(C(C)(C)C)nc2c1nnn2Cc1nnnn1C [Example 27, 4-[5-tert-butyl-3-[(1-methyltetrazol-5-yl)methyl]triazolo[4,5-d]pyrimidin-7-yl]-5-methyl-1,2-oxazole]
EC50 [1]: 0.515 µM
EC50 [2]: > 10 µM

Cn1nnnc1Cn1nnc2c(-c3ncc[nH]3)nc(C(C)(C)C)nc21 [Example 28, 5-tert-butyl-7-(1H-imidazol-2-yl)-3-[(1-methyltetrazol-5-yl)methyl]triazolo[4,5-d]pyrimidine]
EC50 [1]: 0.0125 µM
EC50 [2]: > 10 µM

CC(C)(C)c1nc(C2(O)CCCCCC2)c2nnn(Cc3ccccc3Cl)c2n1 [Example 36, 1-[5-tert-Butyl-3-[(2-chlorophenyl)methyl]triazolo[4,5-d]pyrimidin-7-yl]cycloheptanol]
EC50 [1]: 0.0173 µM
EC50 [2]: > 10 µM

CC(C)(C)c1nc2c(nnn2Cc2ccccc2Cl)c([C@]2(O)C[C@@H](C(F)F)C2)n1 [Example 41, Cis-1-[5-tert-Butyl-3-[(2-chlorophenyl)methyl]triazolo[4,5-d]pyrimidin-7-yl]-3-(difluoromethyl)cyclobutanol]
EC50 [1]: 0.0305 µM
EC50 [2]: > 10 µM

Cn1nccc1-c1nc(C(C)(C)C)nc2c1nnn2Cc1nnnn1C [Example 13, 5-tert-butyl-7-(2-methylpyrazol-3-yl)-3-[(1-methyltetrazol-5-yl)methyl]triazolo[4,5-d]pyrimidine]
EC50 [1]: 0.0333 µM
EC50 [2]: > 10 µM

CC(C)(C)c1nc(C2(O)CSC2)c2nnn(Cc3ccccc3Cl)c2n1 [Example 39, 3-[5-tert-Butyl-3-[(2-chlorophenyl)methyl]triazolo[4,5-d]pyrimidin-7-yl]thietan-3-ol]
EC50 [1]: 0.168 µM
EC50 [2]: > 10 µM

CC(C)(C)c1nc(C2(F)CCC2)c2nnn(Cc3ccccc3)c2n1 [Example 32, 3-Benzyl-5-tert-butyl-7-(1-fluorocyclobutyl)triazolo[4,5-d]pyrimidine]
EC50 [1]: 0.024 µM
EC50 [2]: > 10 µM

CC(C)(C)c1nc(C2(CF)CC2)c2nnn(Cc3ccccc3Cl)c2n1 [Example 43, 5-tert-Butyl-3-[(2-chlorophenyl)methyl]-7-[1-(fluoromethyl)cyclopropyl]triazolo[4,5-d]pyrimidine]
EC50 [1]: 0.903 µM
EC50 [2]: > 10 µM

CC(C)(C)c1nc(C2=CCCC2)c2nnn(Cc3ccccc3Cl)c2n1 [Example 44, 5-tert-Butyl-3-[(2-chlorophenyl)methyl]-7-(cyclopenten-1-yl)triazolo[4,5-d]pyrimidine]
EC50 [1]: 0.004 µM
EC50 [2]: > 10 µM
